# Data published in patent US20220024921A1, “1,3,4-OXADIAZOLONE COMPOUND AND PHARMACEUTICAL” (NIPPON SHINYAKU CO., LTD., priority 2018, published 2022).
# Assays:
# [1] = system: NZB/W F1 mice; assay: Inhibitory effect on systemic lupus erythematosus and lupus nephritis model animals; type: in vivo; settings: for survival rate / onset rate of proteinuria / anti-double-stranded DNA antibody titer: NZB/W F1 mice, 15, 30 mg per 1 kg twice a day for 15 weeks; for onset rate of proteinuria: UACR>20 = proteinuria-positive; for anti-double-stranded DNA antibody titer / Anti-double-stranded DNA antibody titer (U/mL): plasma, final day of administration; for Number of proteinuria-positive individuals: UACR>20 defined as positive; for Anti-double-stranded DNA antibody titer (U/mL): median of group; for Number of dead/euthanized individuals: until the final day of administration
# Text: For the evaluation of test substances, NZB/W F1 mice (29, 30-week-aged female), which are model mice with systemic lupus erythematosus and lupus nephritis, were used. These mice are a spontaneous animal model, and an increase in autoantibodies such as anti-double-stranded DNA antibody, which is considered to be a cause of systemic lupus erythematosus, and proteinuria, which is a characteristic of lupus nephritis, are observed for the mice, and the mice are known to die from nephritis.
# Urine was collected before the start of the test, and individuals with a urinary albumin concentration÷urinary creatinine concentration (UACR) value of 5 or more were excluded. Furthermore, the anti-double-stranded DNA antibody titer in blood and the body weight were measured before the start of the test, and 53 mice were grouped into 5 groups of 10 or 13 mice based on blood anti-double-stranded DNA antibody titer, age, and body weight. Since early death was expected for the vehicle-administered group, the test was conducted with 13 mice as this group.
# Example 75 and Example 202 were used as test substances, and a 0.5% methyl cellulose solution which is a vehicle was used as a control. Example 75 and Example 202 were prepared into solutions of 1.5 and 3.0 mg/mL by being dissolved in a 0.5% methyl cellulose solution.
# After grouping, the 0.5% methyl cellulose solution or the 1.5 or 3.0 mg/mL solution of Example 75 or Example 202 was administered to each of the mice of the 7 groups. The single dose was set to 10 mL per 1 kg of body weight, and the dose was administered twice a day. Under these conditions, the dose per time is 15, 30 mg per 1 kg of body weight. Administration was started on 29 or 30-week-aged mice, and was performed daily for 15 weeks until the age of 44 or 45 weeks.
# Blood was collected from the tail vein of each of all the surviving individuals on the final day of administration. Then, the blood was centrifuged and the plasma was separated and taken. The plasma was diluted 3000-fold, and the anti-double-stranded DNA antibody titer was measured by ELISA method (Levis anti-dsDNA-mouse ELISA Kit, FUJIFILM Wako Shibayagi Corporation). Measurement and analysis were performed according to the protocol of the Kit.
# All the surviving individuals on the final day of administration were bred in a mouse metabolism cage (CLEA Japan, Inc.) for 16 hours, and urine was collected from each individual. The solids were removed by centrifuging the urine and collecting the supernatant. An automatic analyzer (JCA-BM6050 BioMajesty, JEOL Ltd.) was used to measure the albumin concentration and creatinine concentration in urine after centrifugation. A urinary albumin/creatinine ratio (UACR) was calculated by dividing the albumin concentration by the creatinine concentration, and individuals with UACR>20 were defined as proteinuria-positive individuals. In addition, for almost all the individuals that died before the final day of administration, UACR>20 was confirmed in urinalysis immediately before death, and thus these individuals were treated as proteinuria-positive individuals.
# [2] = molecular target: PIM2 transgenic cells (Ba/F3) (Homo sapiens, UniProt Q9P1W9); assay: Proliferation inhibitory effect on PIM2 transgenic cells; type: cell-based, mouse; settings: proliferation inhibition, 72 hours, Cell Counting Kit-8, read-out: PIM2 IC50
# Chain of PIM2 transgenic cells (Ba/F3) (Q9P1W9 whole entry, stated change not applied): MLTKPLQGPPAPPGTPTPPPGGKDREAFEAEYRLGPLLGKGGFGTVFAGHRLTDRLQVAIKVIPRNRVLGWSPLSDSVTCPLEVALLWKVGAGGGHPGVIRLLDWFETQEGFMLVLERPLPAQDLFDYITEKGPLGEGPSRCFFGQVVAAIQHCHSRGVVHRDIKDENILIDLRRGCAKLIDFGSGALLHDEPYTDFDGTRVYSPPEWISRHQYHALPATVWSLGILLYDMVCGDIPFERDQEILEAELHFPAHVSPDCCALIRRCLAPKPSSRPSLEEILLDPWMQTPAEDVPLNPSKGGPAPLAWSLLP
# Text: (§1) Human PIM1, 2, and 3 genes were inserted into the multi-cloning sites of retrovirus expression vectors pMYs-IRES-GFP, respectively, to prepare gene transfer vectors. Then, each gene transfer vector was introduced into packaging cells PLAT-E derived from a human fetal kidney cell line in the logarithmic growth phase, using a transfection reagent (FuGENE6, Promega Corporation). Since the culture supernatant of PLAT-E after gene transfer contained virus particles for gene transfer, the culture supernatant was collected and used as a medium for gene transfer. The medium for gene transfer was added to a plate coated with RetroNectin, and the plate was incubated to attach the virus particles to the plate. Then, a mouse pro-B cell line Ba/F3 in the logarithmic growth phase was seeded on the plate and infected with the virus to prepare PIM1, 2, or 3 transgenic cells that proliferate in a PIM 1, 2, or 3-dependent manner. The expression of PIM1, 2, or 3 protein in each cell was confirmed by Western blotting.
# (§2) Each test substance was prepared to 10 mM with dimethylsulfoxide (DMSO), and diluted with DMSO so as to have concentrations of 3000, 1000, 300, 100, 30, 10, 3, and 1 μM. Moreover, each dilution was further diluted 10-fold with distilled water to prepare a test substance solution.
# (§3) PIM1, 2, 3-expressing cells were seeded on a 96-well plate, and each test substance solution prepared the next day was added such that final concentrations were 10000, 3000, 1000, 300, 100, 30, 10, 3, and 1 nM. 72 hours after the addition, 10 μL of Cell Counting Kit-8 (DOJINDO LABORATORIES) was added to each well. After incubation for 1 to 4 hours, absorbance OD450 at 450 nm was measured. In addition, absorption OD650 at 650 nm as a reference wavelength was measured.
# (§4) OD450-OD650 for each condition was calculated, and then the inhibition rates when OD450-OD650 of negative control (DMSO only) and OD450-OD650 of Blank (without cells) were set to 0% and 100%, respectively, were calculated. Then, non-linear regression analysis was performed for logarithmic dose and inhibition rate using a two-parameter logistic model to estimate IC50 values.
# (§5) For the compounds with the following Example numbers, in addition to the above proliferation inhibitory effect on PIM1 transgenic cells, the proliferation inhibitory effect on PIM2 transgenic cells and the proliferation inhibitory effect on PIM3 transgenic cells were calculated as IC50.
# [3] = molecular target: PIM3 transgenic cells (Ba/F3) (Homo sapiens, UniProt Q86V86); assay: Proliferation inhibitory effect on PIM3 transgenic cells; type: cell-based, mouse; settings: proliferation inhibition, 72 hours, Cell Counting Kit-8, read-out: PIM3 IC50
# Text: as §1, §2, §3, §4, §5
# [4] = single dose 15 mg/kg twice a day for 15 weeks
# [5] = single dose 30 mg/kg twice a day for 15 weeks
smiles,measurement,setting,value
"C[C@H](Nc1cc(-c2n[nH]c(=O)o2)cc(F)c1C(F)(F)F)C1CCNCC1.Cl [Example 75, 5-[3-fluoro-5-{[(1S)-1-(piperidin-4-yl)ethyl]amino}-4-(trifluoromethyl)phenyl]-1,3,4-oxadiazol-2(3H)-one hydrochloride]",survival rate,[1],improving the survival rate
same,onset rate of proteinuria,[1],decreasing the onset rate of proteinuria
same,anti-double-stranded DNA antibody titer,[1],suppressing an increase in anti-double-stranded DNA antibody titer
same,Number of proteinuria-positive individuals,[1]; [4],2/10
same,Anti-double-stranded DNA antibody titer (U/mL),[1]; [4],423 U/mL
same,Number of dead/euthanized individuals,[1]; [4],0/10
same,Number of proteinuria-positive individuals,[1]; [5],0/10
same,Anti-double-stranded DNA antibody titer (U/mL),[1]; [5],306 U/mL
same,Number of dead/euthanized individuals,[1]; [5],0/10
same,GI50,[2],620 nM
same,GI50,[3],120 nM
"C[C@H](Nc1cc(-c2n[nH]c(=O)o2)cc(F)c1OC(F)(F)F)C1CCNCC1.Cl [Example 202, 5-[3-fluoro-5-{[(1S)-1-(piperidin-4-yl)ethyl]amino}-4-(trifluoromethoxy)phenyl]-1,3,4-oxadiazol-2(3H)-one hydrochloride]",survival rate,[1],improving the survival rate
same,onset rate of proteinuria,[1],decreasing the onset rate of proteinuria
same,anti-double-stranded DNA antibody titer,[1],suppressing an increase in anti-double-stranded DNA antibody titer
same,Number of proteinuria-positive individuals,[1]; [4],1/10
same,Anti-double-stranded DNA antibody titer (U/mL),[1]; [4],568 U/mL
same,Number of dead/euthanized individuals,[1]; [4],1/10
same,Number of proteinuria-positive individuals,[1]; [5],1/10
same,Anti-double-stranded DNA antibody titer (U/mL),[1]; [5],112 U/mL
same,Number of dead/euthanized individuals,[1]; [5],1/10
same,GI50,[2],790 nM
same,GI50,[3],78 nM
